{"source": "patent US20170190671A1", "about": "“BIS(ARYL)CATECHOL DERIVATIVES AS HERBICIDES” (E I DU PONT DE NEMOURS AND COMPANY, priority 2014, published 2017)", "test_in_all_cases": "Test E preemergence", "format_in_all_cases": "in vivo", "settings_in_all_cases": "scale 0 to 100", "key": {"[1]": {"system": "nightshade (eastern black nightshade, Solanum ptycanthum)", "excerpt": "(§1) Seeds of plant species selected from corn (Zea mays), soybean (Glycine max), velvetleaf (Abutilon theophrasti), cocklebur (common cocklebur, Xanthium strumarium), lambsquarters (Chenopodium album), wild poinsettia (Euphorbia heterophylla), palmer pigweed (Amaranthus palmeri), waterhemp (common waterhemp, Amaranthus rudis), surinam grass (Brachiaria decumbens), large (Lg) crabgrass (Digitaria sanguinalis), Brazilian crabgrass (Digitaria horizontalis), fall panicum (Panicum dichotomiflorum), giant foxtail (Setaria faberii), green foxtail (Setaria viridis), goosegrass (Eleusine indica), johnsongrass (Sorghum halepense), ragweed (common ragweed, Ambrosia elatior), barnyardgrass (Echinochloa crus-galli), sandbur (southern sandbur, Cenchrus echinatus), arrowleaf sida (Sida rhombifolia), Italian ryegrass (Lolium multiflorum), dayflower (Virginia (VA) dayflower, Commelina virginica), field bindweed (Convolvulus arvensis), morningglory (Ipomoea coccinea), nightshade (eastern black nightshade, Solanum ptycanthum), kochia (Kochia scoparia), yellow nutsedge (Cyperus esculentus), horseweed (Conyza canadensis), and hairy beggarticks (Bidens pilosa), were planted into a silt loam soil and treated preemergence with test chemicals formulated in a non-phytotoxic solvent mixture which included a surfactant.\n(§2) At the same time, plants from these crop and weed species and also waterhemp_RES1, (ALS & Triazine resistant common waterhemp, Amaranthus rudis), and waterhemp_RES2, (ALS & HPPD resistant common waterhemp, Amaranthus rudis) were planted in pots containing Redi-Earth® planting medium (Scotts Company, 14111 Scottslawn Road, Marysville, Ohio 43041) comprising spaghnum peat moss, vermiculite, wetting agent and starter nutrients were treated with postemergence applications of test chemicals formulated in the same manner. Plants ranged in height from 2 to 18 cm for postemergence treatments (1- to 4-leaf stage). Treated plants and controls were maintained in a greenhouse for 14 to 21 days, after which time all species were compared to controls and visually evaluated. Plant response ratings, summarized in Table E, are based on a scale of 0 to 100 where 0 is no effect and 100 is complete control. A dash (-) response means no test result."}, "[2]": {"system": "sandbur (southern sandbur, Cenchrus echinatus)", "excerpt": "as §1, §2"}, "[3]": {"system": "giant foxtail (Setaria faberii)", "excerpt": "as §1, §2"}, "[4]": {"system": "lambsquarters (Chenopodium album)", "excerpt": "as §1, §2"}, "[5]": {"system": "yellow nutsedge (Cyperus esculentus)", "excerpt": "as §1, §2"}, "[6]": {"system": "field bindweed (Convolvulus arvensis)", "excerpt": "as §1, §2"}, "[7]": {"system": "palmer pigweed (Amaranthus palmeri)", "excerpt": "as §1, §2"}, "[8]": {"system": "waterhemp (common waterhemp, Amaranthus rudis)", "excerpt": "as §1, §2"}, "[9]": {"system": "dayflower (Virginia (VA) dayflower, Commelina virginica)", "excerpt": "as §1, §2"}, "[10]": {"system": "hairy beggarticks (Bidens pilosa)", "excerpt": "as §1, §2"}, "[11]": {"system": "green foxtail (Setaria viridis)", "excerpt": "as §1, §2"}, "[12]": {"system": "Surinam grass (Brachiaria decumbens)", "excerpt": "as §1, §2"}, "[13]": {"system": "ragweed (common ragweed, Ambrosia elatior)", "excerpt": "as §1, §2"}, "[14]": {"system": "velvetleaf (Abutilon theophrasti)", "excerpt": "as §1, §2"}, "soybean (Glycine max)": {"system": "soybean (Glycine max)", "excerpt": "as §1, §2"}, "[15]": {"system": "goosegrass (Eleusine indica)", "excerpt": "as §1, §2"}, "[16]": {"system": "large (Lg) crabgrass (Digitaria sanguinalis)", "excerpt": "as §1, §2"}, "[17]": {"system": "barnyardgrass (Echinochloa crus-galli)", "excerpt": "as §1, §2"}, "corn (Zea mays)": {"system": "corn (Zea mays)", "excerpt": "as §1, §2"}, "[18]": {"system": "arrowleaf sida (Sida rhombifolia)", "excerpt": "as §1, §2"}, "[19]": {"system": "morningglory (Ipomoea coccinea)", "excerpt": "as §1, §2"}}}
{"smiles": "Fc1cccc(Oc2ncc(C(F)(F)F)cn2)c1Oc1ncc(Cl)cn1", "note": "[Compound 42, 5-chloro-2-[2-fluoro-6-[[5-(trifluoromethyl)-2-pyrimidinyl]oxy]phenoxy]pyrimidine]", "values": [{"measurement": "Plant response rating, Nightshade", "setting": "[1]; 16 g ai/ha", "value": 80}, {"measurement": "Plant response rating, Nightshade", "setting": "[1]; 31 g ai/ha", "value": 70}, {"measurement": "Plant response rating, Nightshade", "setting": "[1]; 62 g ai/ha", "value": 98}, {"measurement": "Plant response rating, Nightshade", "setting": "[1]; 125 g ai/ha", "value": 98}, {"measurement": "Plant response rating, Sandbur", "setting": "[2]; 16 g ai/ha", "value": 0}, {"measurement": "Plant response rating, Sandbur", "setting": "[2]; 31 g ai/ha", "value": 5}, {"measurement": "Plant response rating, Sandbur", "setting": "[2]; 62 g ai/ha", "value": 35}, {"measurement": "Plant response rating, Sandbur", "setting": "[2]; 125 g ai/ha", "value": 65}, {"measurement": "Plant response rating, Foxtail, Giant", "setting": "[3]; 16 g ai/ha", "value": 50}, {"measurement": "Plant response rating, Foxtail, Giant", "setting": "[3]; 31 g ai/ha", "value": 80}, {"measurement": "Plant response rating, Foxtail, Giant", "setting": "[3]; 62 g ai/ha", "value": 100}, {"measurement": "Plant response rating, Foxtail, Giant", "setting": "[3]; 125 g ai/ha", "value": 100}, {"measurement": "Plant response rating, Lambsquarters", "setting": "[4]; 16 g ai/ha", "value": 100}, {"measurement": "Plant response rating, Lambsquarters", "setting": "[4]; 31 g ai/ha", "value": 100}, {"measurement": "Plant response rating, Lambsquarters", "setting": "[4]; 62 g ai/ha", "value": 100}, {"measurement": "Plant response rating, Lambsquarters", "setting": "[4]; 125 g ai/ha", "value": 100}, {"measurement": "Plant response rating, Nutsedge, Yellow", "setting": "[5]; 16 g ai/ha", "value": 0}, {"measurement": "Plant response rating, Nutsedge, Yellow", "setting": "[5]; 31 g ai/ha", "value": 0}, {"measurement": "Plant response rating, Nutsedge, Yellow", "setting": "[5]; 62 g ai/ha", "value": 35}, {"measurement": "Plant response rating, Nutsedge, Yellow", "setting": "[5]; 125 g ai/ha", "value": 40}, {"measurement": "Plant response rating, Field Bindweed", "setting": "[6]; 16 g ai/ha", "value": 25}, {"measurement": "Plant response rating, Field Bindweed", "setting": "[6]; 31 g ai/ha", "value": 20}, {"measurement": "Plant response rating, Field Bindweed", "setting": "[6]; 62 g ai/ha", "value": 40}, {"measurement": "Plant response rating, Field Bindweed", "setting": "[6]; 125 g ai/ha", "value": 85}, {"measurement": "Plant response rating, Pigweed, Palmer", "setting": "[7]; 16 g ai/ha", "value": 60}, {"measurement": "Plant response rating, Pigweed, Palmer", "setting": "[7]; 31 g ai/ha", "value": 70}, {"measurement": "Plant response rating, Pigweed, Palmer", "setting": "[7]; 62 g ai/ha", "value": 80}, {"measurement": "Plant response rating, Pigweed, Palmer", "setting": "[7]; 125 g ai/ha", "value": 100}, {"measurement": "Plant response rating, Waterhemp", "setting": "[8]; 16 g ai/ha", "value": 98}, {"measurement": "Plant response rating, Waterhemp", "setting": "[8]; 31 g ai/ha", "value": 100}, {"measurement": "Plant response rating, Waterhemp", "setting": "[8]; 62 g ai/ha", "value": 100}, {"measurement": "Plant response rating, Waterhemp", "setting": "[8]; 125 g ai/ha", "value": 100}, {"measurement": "Plant response rating, Dayflower, VA", "setting": "[9]; 16 g ai/ha", "value": 0}, {"measurement": "Plant response rating, Dayflower, VA", "setting": "[9]; 31 g ai/ha", "value": 20}, {"measurement": "Plant response rating, Dayflower, VA", "setting": "[9]; 62 g ai/ha", "value": 90}, {"measurement": "Plant response rating, Dayflower, VA", "setting": "[9]; 125 g ai/ha", "value": 95}, {"measurement": "Plant response rating, Beggarticks", "setting": "[10]; 16 g ai/ha", "value": 0}, {"measurement": "Plant response rating, Beggarticks", "setting": "[10]; 31 g ai/ha", "value": 0}, {"measurement": "Plant response rating, Beggarticks", "setting": "[10]; 62 g ai/ha", "value": 0}, {"measurement": "Plant response rating, Beggarticks", "setting": "[10]; 125 g ai/ha", "value": 0}, {"measurement": "Plant response rating, Foxtail, Green", "setting": "[11]; 16 g ai/ha", "value": 35}, {"measurement": "Plant response rating, Foxtail, Green", "setting": "[11]; 31 g ai/ha", "value": 80}, {"measurement": "Plant response rating, Foxtail, Green", "setting": "[11]; 62 g ai/ha", "value": 95}, {"measurement": "Plant response rating, Foxtail, Green", "setting": "[11]; 125 g ai/ha", "value": 100}, {"measurement": "Plant response rating, Surinam Grass", "setting": "[12]; 16 g ai/ha", "value": 0}, {"measurement": "Plant response rating, Surinam Grass", "setting": "[12]; 31 g ai/ha", "value": 0}, {"measurement": "Plant response rating, Surinam Grass", "setting": "[12]; 62 g ai/ha", "value": 40}, {"measurement": "Plant response rating, Surinam Grass", "setting": "[12]; 125 g ai/ha", "value": 85}, {"measurement": "Plant response rating, Ragweed", "setting": "[13]; 16 g ai/ha", "value": 0}, {"measurement": "Plant response rating, Ragweed", "setting": "[13]; 31 g ai/ha", "value": 20}, {"measurement": "Plant response rating, Ragweed", "setting": "[13]; 62 g ai/ha", "value": 65}, {"measurement": "Plant response rating, Ragweed", "setting": "[13]; 125 g ai/ha", "value": 100}, {"measurement": "Plant response rating, Velvetleaf", "setting": "[14]; 16 g ai/ha", "value": 75}, {"measurement": "Plant response rating, Velvetleaf", "setting": "[14]; 31 g ai/ha", "value": 80}, {"measurement": "Plant response rating, Velvetleaf", "setting": "[14]; 62 g ai/ha", "value": 100}, {"measurement": "Plant response rating, Velvetleaf", "setting": "[14]; 125 g ai/ha", "value": 100}, {"measurement": "Plant response rating, Soybean", "setting": "soybean (Glycine max); 16 g ai/ha", "value": 0}, {"measurement": "Plant response rating, Soybean", "setting": "soybean (Glycine max); 31 g ai/ha", "value": 35}, {"measurement": "Plant response rating, Soybean", "setting": "soybean (Glycine max); 62 g ai/ha", "value": 35}, {"measurement": "Plant response rating, Soybean", "setting": "soybean (Glycine max); 125 g ai/ha", "value": 100}, {"measurement": "Plant response rating, Goosegrass", "setting": "[15]; 16 g ai/ha", "value": 0}, {"measurement": "Plant response rating, Goosegrass", "setting": "[15]; 31 g ai/ha", "value": 50}, {"measurement": "Plant response rating, Goosegrass", "setting": "[15]; 62 g ai/ha", "value": 90}, {"measurement": "Plant response rating, Goosegrass", "setting": "[15]; 125 g ai/ha", "value": 98}, {"measurement": "Plant response rating, Crabgrass, Large", "setting": "[16]; 16 g ai/ha", "value": 80}, {"measurement": "Plant response rating, Crabgrass, Large", "setting": "[16]; 31 g ai/ha", "value": 98}, {"measurement": "Plant response rating, Crabgrass, Large", "setting": "[16]; 62 g ai/ha", "value": 100}, {"measurement": "Plant response rating, Crabgrass, Large", "setting": "[16]; 125 g ai/ha", "value": 100}, {"measurement": "Plant response rating, Barnyardgrass", "setting": "[17]; 16 g ai/ha", "value": 5}, {"measurement": "Plant response rating, Barnyardgrass", "setting": "[17]; 31 g ai/ha", "value": 50}, {"measurement": "Plant response rating, Barnyardgrass", "setting": "[17]; 62 g ai/ha", "value": 70}, {"measurement": "Plant response rating, Barnyardgrass", "setting": "[17]; 125 g ai/ha", "value": 100}, {"measurement": "Plant response rating, Corn", "setting": "corn (Zea mays); 16 g ai/ha", "value": 0}, {"measurement": "Plant response rating, Corn", "setting": "corn (Zea mays); 31 g ai/ha", "value": 0}, {"measurement": "Plant response rating, Corn", "setting": "corn (Zea mays); 62 g ai/ha", "value": 35}, {"measurement": "Plant response rating, Corn", "setting": "corn (Zea mays); 125 g ai/ha", "value": 65}, {"measurement": "Plant response rating, Arrowleaf Sida", "setting": "[18]; 16 g ai/ha", "value": 100}, {"measurement": "Plant response rating, Arrowleaf Sida", "setting": "[18]; 31 g ai/ha", "value": 98}, {"measurement": "Plant response rating, Arrowleaf Sida", "setting": "[18]; 62 g ai/ha", "value": 100}, {"measurement": "Plant response rating, Arrowleaf Sida", "setting": "[18]; 125 g ai/ha", "value": 100}, {"measurement": "Plant response rating, Morningglory", "setting": "[19]; 16 g ai/ha", "value": 0}, {"measurement": "Plant response rating, Morningglory", "setting": "[19]; 31 g ai/ha", "value": 35}, {"measurement": "Plant response rating, Morningglory", "setting": "[19]; 62 g ai/ha", "value": 70}, {"measurement": "Plant response rating, Morningglory", "setting": "[19]; 125 g ai/ha", "value": 95}]}
